Source: US20090312396A1, “METHODS FOR CANCER TREATMENT USING TAK1 INHIBITORS” (AstraZeneca AB, priority 2006, published 2009)
Like-named read-outs stand apart in the source and are kept apart here.

What was measured:
TAK1 = target: T1, TAK1 (Homo sapiens, UniProt O43318); assay: TAK1 enzyme inhibition; assay type: biochemical
T1 sequence (O43318 1-606): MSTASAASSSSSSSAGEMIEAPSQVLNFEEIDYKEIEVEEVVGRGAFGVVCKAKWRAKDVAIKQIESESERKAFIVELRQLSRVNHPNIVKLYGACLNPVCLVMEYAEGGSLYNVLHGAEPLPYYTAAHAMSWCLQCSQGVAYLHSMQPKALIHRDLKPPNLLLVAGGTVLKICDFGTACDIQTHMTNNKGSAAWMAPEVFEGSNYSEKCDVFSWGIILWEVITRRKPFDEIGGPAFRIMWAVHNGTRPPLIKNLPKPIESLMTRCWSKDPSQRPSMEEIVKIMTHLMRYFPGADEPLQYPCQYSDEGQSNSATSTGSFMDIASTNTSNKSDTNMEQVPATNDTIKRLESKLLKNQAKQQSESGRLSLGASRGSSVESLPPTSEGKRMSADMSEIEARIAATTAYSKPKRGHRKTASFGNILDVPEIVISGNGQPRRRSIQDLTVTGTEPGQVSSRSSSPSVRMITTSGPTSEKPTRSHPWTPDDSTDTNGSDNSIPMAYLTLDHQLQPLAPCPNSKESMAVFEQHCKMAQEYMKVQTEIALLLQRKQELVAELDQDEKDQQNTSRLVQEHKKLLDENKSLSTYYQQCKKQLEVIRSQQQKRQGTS
T1 sequence (Q15750 1-504 partner): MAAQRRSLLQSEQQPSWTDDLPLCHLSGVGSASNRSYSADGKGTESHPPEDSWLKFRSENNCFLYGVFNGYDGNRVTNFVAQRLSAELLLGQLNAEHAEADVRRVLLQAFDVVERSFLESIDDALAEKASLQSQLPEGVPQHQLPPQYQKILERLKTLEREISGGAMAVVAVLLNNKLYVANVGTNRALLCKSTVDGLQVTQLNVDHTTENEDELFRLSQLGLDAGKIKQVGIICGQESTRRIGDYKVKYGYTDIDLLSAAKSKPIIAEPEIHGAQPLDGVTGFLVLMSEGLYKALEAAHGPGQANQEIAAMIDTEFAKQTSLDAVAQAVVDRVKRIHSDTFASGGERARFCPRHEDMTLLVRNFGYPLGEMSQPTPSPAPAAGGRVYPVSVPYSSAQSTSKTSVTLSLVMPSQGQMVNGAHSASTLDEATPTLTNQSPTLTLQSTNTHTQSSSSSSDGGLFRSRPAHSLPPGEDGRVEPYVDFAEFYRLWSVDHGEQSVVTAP

Raji = assay: AlamarBlue proliferation assay, GI50; assay type: cell-based, human; details: 72 hours
Description: (§1) The TAK1 inhibitors are known in the art (see for example, WO 2003010158, WO 2003010163 and WO2004063186 the disclosures of which are incorporated by reference herein). All cell lines were plated at 10,000 cells/well in flat-bottomed 96 well plates and dosed with test compounds in triplicate over a 10 point dosing range from 0 to 30 μmolesL^−1. All cell lines were incubated with test compounds for a total of 72 hours. Background levels were determined for a control (undosed) plate within 2 hours of dosing test compounds. Following the dosing period, the extent of proliferation was measured by adding 1/10 (vol/vol) AlamarBlue reagent to every well and incubating the plates for a further 4 hours. The reaction was stopped by the addition of SDS to a final concentration of 0.1%. Fluorescence was measured at 545 nm (excitation) and 600 nm (emission). Growth inhibition 50 (GI50) values were determined for each test compound across the panel.

DOHH2 = assay: AlamarBlue proliferation assay, GI50; assay type: cell-based; details: Homo sapiens, DOHH-2, 72 hours, Table 4, read-out: GI50 DOHH2 FL
Description: as §1

WSU-NHL = assay: AlamarBlue proliferation assay, GI50; assay type: cell-based; details: Homo sapiens, 72 hours, Table 4, read-out: GI50 WSU-NHL B-NHL
Description: as §1

KG1a = assay: AlamarBlue proliferation assay, GI50; assay type: cell-based; details: Homo sapiens, KG-1a, 72 hours, Table 4, read-out: GI50 KG1a AML
Description: as §1

ARH77 = assay: AlamarBlue proliferation assay, GI50; assay type: cell-based; details: Homo sapiens, ARH-77, 72 hours
Description: as §1

MEC1 = assay: AlamarBlue proliferation assay, GI50; assay type: cell-based; details: Homo sapiens, 72 hours
Description: as §1

Jurkat = assay: AlamarBlue proliferation assay, GI50; assay type: cell-based; details: Homo sapiens, 72 hours, Table 4, read-out: GI50 Jurkat T-ALL
Description: as §1

OCI-LY19 = assay: AlamarBlue proliferation assay, GI50; assay type: cell-based; details: Homo sapiens, 72 hours, Table 4, read-out: GI50 OCI-LY19 DLBCL
Description: as §1

HEL92.1.7 = assay: AlamarBlue proliferation assay, GI50; assay type: cell-based; details: Homo sapiens, HEL 92.1.7, 72 hours, Table 4, read-out: GI50 HEL92.1.7 Erythroleukemia
Description: as §1

Karpas231 = assay: AlamarBlue proliferation assay, GI50; assay type: cell-based; details: Homo sapiens, 72 hours, Table 4, read-out: GI50 Karpas231 B-ALL
Description: as §1

SUDHL4 = assay: AlamarBlue proliferation assay, GI50; assay type: cell-based; details: Homo sapiens, SU-DHL-4, 72 hours, Table 4, read-out: GI50 SUDHL4 DLBCL
Description: as §1

JJN-3 = assay: AlamarBlue proliferation assay, GI50; assay type: cell-based; details: Homo sapiens, 72 hours, Table 5, read-out: GI50 JJN-3 plasma cell leukemia
Description: as §1
(§2) The experiments to generate the results for both Tables 5 and 6 were performed as described above.

WSU DLCL2 = assay: AlamarBlue proliferation assay, GI50; assay type: cell-based; details: Homo sapiens, WSUDLCL2, 72 hours, Table 6, read-out: GI50 WSU DLCL2 B cell lymphoma
Description: as §1, §2

IM-9 = assay: AlamarBlue proliferation assay, GI50; assay type: cell-based; details: Homo sapiens, 72 hours, Table 5, read-out: GI50 IM-9 B lymph
Description: as §1, §2

JEKO-1 = assay: AlamarBlue proliferation assay, GI50; assay type: cell-based; details: Homo sapiens, 72 hours, Table 6, read-out: GI50 JEKO-1 MCL
Description: as §1, §2

NAMALWA = assay: AlamarBlue proliferation assay, GI50; assay type: cell-based; details: Homo sapiens, 72 hours, Table 6, read-out: GI50 NAMALWA Burkitts Lymphoma
Description: as §1, §2

## COC(C)(C)CNCc1ccc(-c2cc(NC(N)=O)c(C(N)=O)s2)cc1 [Compound 4, 3-[(aminocarbonyl)amino]-5-(4-{[(2-methoxy-2-methylpropyl)amino]methyl}phenyl)thiophene-2-carboxamide]
TAK1; Table 4, read-out: TAK1 pIC50 (enzyme) (converted)
  IC50: 63.1 nM
TAK1; Table 5
  TAK1 pIC50: 7.2
Raji; Table 6, read-out: GI50 Raji Burkitts Lymphoma
  GI50: > 30000 nM
Raji; Homo sapiens, Raji, Table 4, read-out: GI50 Raji Burkitts Lymphoma
  GI50: > 30000 nM
DOHH2
  GI50: 101 nM
WSU-NHL
  GI50: 270 nM
KG1a
  GI50: 1090 nM
ARH77; Table 4, read-out: GI50 ARH77 Plasma cell leukemia
  GI50: 3720 nM
ARH77; Table 5, read-out: GI50 ARH-77 plasma cell leukemia
  GI50: 3720 nM
MEC1; Table 4, read-out: GI50 MEC1 B-CLL
  GI50: 2990 nM
MEC1; Table 6, read-out: GI50 MEC-1 B-CLL
  GI50: 2990 nM
Jurkat
  GI50: 10100 nM
OCI-LY19
  GI50: 54 nM
HEL92.1.7
  GI50: 1470 nM
Karpas231
  GI50: 60 nM
SUDHL4
  GI50: 3080 nM
JJN-3
  GI50: 520 nM
WSU DLCL2
  GI50: 1950 nM
IM-9
  GI50: 210 nM
JEKO-1
  GI50: 290 nM
NAMALWA
  GI50: 2960 nM
